Source: patent US20240182423A1, “4-AMINOQUINOLINES FOR TREATMENT OF MULTIDRUG RESISTANT MALARIA” (United States Government as represented by the Department …, priority 2022, published 2024)
Like-named read-outs stand apart in the source and are kept apart here.

Tests used:
[1] = Metabolic stability in pooled murine liver microsomes; format: in vitro ADME; conditions: for half-life: mouse
Experimental: (§1) In vivo efficiency: ADCs antiplasmodial efficiency (ED50, ED90) assessed in murine malaria model against P. yoelii (Py). Metabolic stability: ADCs were assessed for metabolic stability (t1/2, Clint) in pooled murine liver microsomes. Referring to Table 1, ND=not detected.

[2] = test system: drug sensitive D6 clone of P. falciparum; test: SYBR Green I fluorescence-based antiplasmodial assay, D6; format: cell-based, Plasmodium falciparum; conditions: P. falciparum D6, 72 hours
Experimental: (§2) Laboratory strains of P. falciparum were cultured in human erythrocytes by standard methods (Trager, W.; Jensen, J. B. Human malaria parasites in continuous culture. Science 1976, 193 (4254), 673-675. DOI: 10.1126/science.781840 from NLM Medline). The parasites were grown in culture medium with fresh human erythrocytes maintained at 2% hematocrit at 37° C. in low-oxygen conditions (5% 02, 5% CO2, 90% N2). The culture medium used was RPMI-1640 with 25 mg/L gentamicin sulfate, 45 mg/L Albumax II, 10 mM glucose, and 25 mM HEPES buffer (Smilkstein et al., Simple and inexpensive fluorescence-based technique for high-throughput antimalarial drug screening. Antimicrob Agents Chemother 2004, 48 (5), 1803-1806. DOI: 10.1128/aac.48.5.1803-1806.2004). Cultures were maintained at less than 10% parasitemia by transfer of infected cells to fresh erythrocytes and culture medium every 3 or 4 days. […]
(§3) In vitro antimalarial activity was measured using the SYBR Green I fluorescence-based assay. […] Experiments were set up in quadruplicate in 96-well plates with a 100 μL total volume per well with 2% hematocrit, 0.2% parasitemia, and drug dilutions between 0.25 and 250 nM in complete culture medium described above. The plates were incubated at 37° C. in low-oxygen conditions described previously for 72 hours, at which point 100 μL of fluorescent dye-detergent mixture (0.2 μL SYBR Green I: 1 mL lysing buffer) was added and the plates incubated in the dark at room temperature for one hour. After incubation with the fluorescent dye, a 96-well plate reader with excitation wavelength set at 497 nm and emission at 520 nm, was used to measure fluorescence of each well.
(§4) Each of the ADC derivatives was tested for antiplasmodial activity against the drug sensitive D6 clone of P. falciparum as well as one or more of the following multidrug resistant strains: Dd2 or 7G8. The method used for antiplasmodial testing is known as the SyBr Green assay and it was described by us in 2004 (Smilkstein et al., Antimicrob Agents Chemother 2004, 48 (5), 1803-1806).

[3] = HepG2 cytotoxicity assay (resazurin); format: cell-based; conditions: human, HepG2, 24 h drug then 24 h drug-free, read-out: CC50 v HepG2
Experimental: Final compounds were assessed for mammalian cytotoxicity using an immortalized human liver carcinoma cell line (HepG2) using previously described methods.^1 In short, final compounds were prepared in DMSO as 10 mM stock solutions. […] To 96-well flat-bottomed tissue culture plates, HepG2 cells were added at 2×10 4 density with an additional 160 μL of complete culture media per well and were incubated overnight at 37° C. to allow for adherence. Compound stocks aliquots were applied as 40 μL solutions in complete media to each well in a serial dilution series that ranged from […] as duplicates. A 10 mM DMSO stock of mefloquine was used as a positive control. […] 20 μL of resazurin (Alamar Blue) in PBS buffer was added to each well to a final concentration of 10 μM, and the plates were incubated for 3 h. Fluorescence was measured at 560 nm excitation and 590 nm emission bands using a Spectramax iD3 plate reader. Fluorescence output values were normalized to the untreated control wells and plotted against the logarithm of drug concentration.

[4] = test system: multi-drug resistant (Dd2) P. falciparum; test: SYBR Green I fluorescence-based antiplasmodial assay, Dd2; format: cell-based, Plasmodium falciparum; conditions: for IC50: P. falciparum Dd2, 72 hours; for cross resistance, Dd2 vs D6: ratio of IC50 in Dd2 and D6 strains
Experimental: as §2, §3, §4

[5] = test system: Plasmodium yoelii; test: In vivo efficacy against murine malaria, modified 4-day test; conditions: for ED50 (mg/kg/d) vs Py / ED90 (mg/kg/d) vs Py: P. yoelii in mice, oral once daily for 4 days, PEG-400
Experimental: as §1
Selected ADC derivatives were also tested in vivo in mice using the standard 4-day test protocol as described previously. For this work the rodent malaria parasite Plasmodium yoelii was used and the mice were CF1 female. Briefly, animals were inoculated with 35,000 parasitized red blood cells (obtained from a donor animal) on Day 0 of the experiment. Beginning on the next day (Day 1) and again on the 3 succeeding days (Days 2, 3, and 4) the animals received oral doses of the test agent dissolved in the dosing vehicle PEG-400. On Day 5 a blood sample was taken from the tail vein and examined microscopically for the presence of parasites using Giemsa stained and methanol fixed blood smears.
The in vivo efficacy of selected ADC derivatives was determined against blood-stage Plasmodium yoelii using a modified 4-day test. Female mice (Charles River Laboratories) were infected intravenously with 35,000 P. yoelii parasitized erythrocytes from a donor animal (Kenya MR4 MRA-428). […] Five days after inoculation, percent parasitemia was calculated by examination of Giemsa-stained blood smears.

[6] = Pharmacokinetic study in mice; format: in vivo
[7] = Plasmodium falciparum, D6, 72 h
[8] = Plasmodium falciparum, DD2, 72 h
[9] = mouse, plasma, PO 5 mg/kg in PEG400, male CD1 mice
[10] = mouse, plasma, PO 5 mg/kg in PEG400, male CD1 mice, non-compartmental

CIint [1] [mL/min/kg]	half-life [1] [min]	IC50 [2, 7] [nM]	IC50 [4, 8] [nM]	SMILES	CC50 at 24 h ([3]; HepG2 cells) [µM]	further results
		10.2	75.2	Clc1ccc2c(Nc3ccc(C4CCNCC4)cc3)ccnc2c1 [ADC-015, 7-chloro-N-(4-(piperidin-4-yl)phenyl)quinolin-4-amine]	58	
0.00		5.18	9.17	CC(C)(C)N1CCN(c2ccc(Nc3ccnc4cc(Cl)ccc34)cc2)CC1 [ADC-017, N-(4-(4-(tert-butyl)piperazin-1-yl)phenyl)-7-chloroquinolin-4-amine]	> 200	T1/2 (min) [1]: ∞; ED50 (mg/kg/d) vs Py [5]: 4.0 mg/kg/day; ED90 (mg/kg/d) vs Py [5]: 7.6 mg/kg/day
		43.3	110	FC(F)(F)c1ccc(N2CCN(c3ccc(Nc4ccnc5cc(Cl)ccc45)cc3)CC2)cc1 [ADC-018, 7-chloro-N-(4-(4-(4-(trifluoromethyl)phenyl)piperazin-1-yl)phenyl)quinolin-4-amine]	> 200	
496.7	11	4.56	13.4	CCN1CCC(c2ccc(Nc3ccnc4cc(Cl)ccc34)cc2)CC1 [ADC-020, 7-chloro-N-(4-(1-ethylpiperidin-4-yl)phenyl)quinolin-4-amine]	111	ED50 (mg/kg/d) vs Py [5]: 1.8 mg/kg/day; ED90 (mg/kg/d) vs Py [5]: 13.4 mg/kg/day
123.6	44.1	4.94	11.6	CC(C)N1CCC(c2ccc(Nc3ccnc4cc(Cl)ccc34)cc2)CC1 [ADC-021, 7-chloro-N-(4-(1-isopropylpiperidin-4-yl)phenyl)quinolin-4-amine]	> 200	ED50 (mg/kg/d) vs Py [5]: 1.1 mg/kg/day; ED90 (mg/kg/d) vs Py [5]: 4.1 mg/kg/day; ED50 ([5]; P. yoelii, CF1 female mice, 4-day test, oral in PEG-400): 1.1 mg/kg/day
		10.3	19.2	CCN1CCN(c2ccc(Nc3ccnc4cc(Br)ccc34)cc2)CC1 [ADC-025, 7-bromo-N-(4-(4-ethylpiperazin-1-yl)phenyl)quinolin-4-amine]	48	
78.0	70	9.25	19.3	CCCN1CCC(c2ccc(Nc3ccnc4cc(Cl)ccc34)cc2)CC1 [ADC-026, 7-chloro-N-(4-(1-propylpiperidin-4-yl)phenyl)quinolin-4-amine]	> 200	
129.7	42.1	9.03	20.4	CCCCN1CCC(c2ccc(Nc3ccnc4cc(Cl)ccc34)cc2)CC1 [ADC-027, N-(4-(1-butylpiperidin-4-yl)phenyl)-7-chloroquinolin-4-amine]	> 200	
		7.9	17.4	CC(C)CN1CCC(c2ccc(Nc3ccnc4cc(Cl)ccc34)cc2)CC1 [ADC-028, 7-chloro-N-(4-(1-isobutylpiperidin-4-yl)phenyl)quinolin-4-amine]		CC50 at 24 h [3]: > 200 µM; MRTIast ([6]; PO 5 mg/kg in PEG400, male CD1 mice): 1160 min; AUC(0-inf) [6, 9]: 3160 ng·h/mL; AUC(0-t) [6, 9]: 2360 ng·h/mL; MRT inf [6, 9]: 35.6 h; Cmax [6, 10]: 67.7 ng/mL; Tmax [6, 10]: 60 min; half-life ([6]; mouse, plasma, PO 5 mg/kg, male CD1 mice, Rsq_adjusted 0.829 (<0.9: might not be accurately estimated)): 1510 min
98.3	55.5	13.8	19	CCC(C)N1CCC(c2ccc(Nc3ccnc4cc(Cl)ccc34)cc2)CC1 (stereo not shown) [ADC-029, N-(4-(1-(sec-butyl)piperidin-4-yl)phenyl)-7-chloroquinolin-4-amine]	> 200	
391.9	13.9	9.79	17.8	CC(C)CN1CCN(c2ccc(Nc3ccnc4cc(Cl)ccc34)cc2)CC1 [ADC-030, 7-chloro-N-(4-(4-isobutylpiperazin-1-yl)phenyl)quinolin-4-amine]	> 200	

More lines, now with the values behind:

SMILES	CIint [1] [mL/min/kg]	half-life [1] [min]	IC50 [2, 7] [nM]	IC50 [4, 8] [nM]	CC50 at 24 h ([3]; HepG2 cells) [µM]	further results
Clc1ccc2c(Nc3ccc(N4CCN(Cc5ccccc5)CC4)cc3)ccnc2c1 [ADC-008, N-(4-(4-benzylpiperazin-1-yl)phenyl)-7-chloroquinolin-4-amine]	391.9	13.9	16.1	15.9	> 200	cross resistance, Dd2 vs D6 [4]: Equipotency
CCN1CCN(c2ccc(Nc3ccnc4cc(Cl)ccc34)cc2)CC1 [ADC-009, 7-chloro-N-(4-(4-ethylpiperazin-1-yl)phenyl)quinolin-4-amine]	2936	1.86	~13	~13	> 200	IC50 [2]: 13.2 nM; ED50 (mg/kg/d) vs Py [5]: 1.5 mg/kg/day; ED90 (mg/kg/d) vs Py [5]: 8.4 mg/kg/day; IC50 [4]: 12.7 nM
CN1CCN(c2ccc(Nc3ccnc4cc(Cl)ccc34)cc2)CC1 [ADC-010, 7-chloro-N-(4-(4-methylpiperazin-1-yl)phenyl)quinolin-4-amine]	3784	1.44	13.3	14	185	cross resistance, Dd2 vs D6 [4]: Equipotency
Clc1ccc2c(Nc3ccc(N4CCNCC4)cc3)ccnc2c1 [ADC-011, 7-chloro-N-(4-(piperazin-1-yl)phenyl)quinolin-4-amine]			21.8	65.8	54	
CC(C)(C)OC(=O)N1CCN(c2ccc(Nc3ccnc4cc(Cl)ccc34)cc2)CC1 [ADC-012, tert-butyl 4-(4-((7-chloroquinolin-4-yl)amino)phenyl)piperazine-1-carboxylate]					> 200	
Clc1ccc2c(Nc3ccc(N4CCN(C5CC5)CC4)cc3)ccnc2c1 [ADC-013, 7-chloro-N-(4-(4-cyclopropylpiperazin-1-yl)phenyl)quinolin-4-amine]			39.2	84.4	> 200	
CCN1CCN(c2ccc(Nc3ccnc4ccc(Cl)cc34)cc2)CC1 [ADC-014, 6-chloro-N-(4-(4-ethylpiperazin-1-yl)phenyl)quinolin-4-amine]			69.8	66	> 200	cross resistance, Dd2 vs D6 [4]: Equipotency
CCN1CCN(c2ccc(Nc3ccnc4cc(C(F)(F)F)ccc34)cc2)CC1 [ADC-024, N-(4-(4-ethylpiperazin-1-yl)phenyl)-7-(trifluoromethyl)quinolin-4-amine]					> 200	
